In ChEMBL document CHEMBL4739717, “Methods of treating cartilage disorders through inhibition of clk and dyrk” (2020):

Key:
[1] = Effect on Wnt signaling pathway in human SW480 cells harbouring TCF/LEF luciferase reporter gene and SP5-Luc reporter gene incubated for 36 to 48 hrs by luminescence assay; assay type: cell-based
[2] = molecular target: Dual specificity tyrosine-phosphorylation-regulated kinase 1A (Homo sapiens, UniProt Q13627); experiment: Inhibition of recombinant DYRK1A (unknown origin) using Ser/Thr 18 peptide as substrate incubated for 1 hr in presence of ATP by FRET assay
[3] = Induction of chondrogenesis in human MSC assessed as maximum activity at 100 nM incubated for 6 days by rhodamine B and Nile red staining based imaging analysis relative to control; assay type: functional; conditions: BMMSC, 144 h, time 6 day
[4] = Induction of chondrogenesis in human MSC assessed as maximum activity at 30 nM incubated for 6 days by rhodamine B and Nile red staining based imaging analysis relative to control; assay type: functional; conditions: BMMSC, 144 h, time 6 day
[5] = Inhibition of IL1-beta induced MMP3 expression levels in human chondrocytes assessed as MMP3 levels incubated for 2hrs followed by IL1-beta stimulation and measured after overnight incubation by LANCE assay; assay type: functional, cell-based; conditions: Chondrocyte
[6] = Induction of chondrogenesis in human MSC assessed as incubated for 6 days by rhodamine B and Nile red staining based imaging analysis; assay type: functional; conditions: bmmsc

| Structure (SMILES) | EC50 [1] [nM] | EC50 [2] [nM] | Emax at 0.1 µM [3] [%] | Emax at 0.03 µM [4] [%] | EC50 [5] [nM] | EC50 [6] [nM] |
| --- | --- | --- | --- | --- | --- | --- |
| CC(C)(C)C(=O)Nc1cncc(-c2ccc3[nH]nc(-c4cc5c(-c6ccncc6)ccnc5[nH]4)c3c2)c1 | > 10000 | 20 | 44.4 | – | – | – |
| CN1CCN(c2nccc3[nH]c(-c4n[nH]c5ccc(-c6cncc(NC(=O)C7CCCCC7)c6)cc45)cc23)CC1 | 5270 | 22 | 37.8 | – | – | – |
| c1cnc2[nH]c(-c3n[nH]c4ccc(-c5cncc(OCCN6CCCC6)c5)cc34)cc2c1 | 3300 | 10 | 42.7 | – | – | – |
| c1cc2[nH]c(-c3n[nH]c4ncc(-c5cncc(CN6CCCCC6)c5)cc34)cc2cn1 | 1540 | 7 | 39.7 | – | – | – |
| c1cncc(-c2cnc3[nH]nc(-c4nc5c(-c6cccnc6)cncc5[nH]4)c3c2)c1 | > 10000 | 86 | 62.9 | – | – | – |
| CN1CCN(c2nccc3[nH]c(-c4n[nH]c5ccc(-c6cncc(NC(=O)c7ccccc7)c6)cc45)cc23)CC1 | 2140 | 16 | 34.6 | – | – | – |
| CN1CCN(c2nccc3[nH]c(-c4n[nH]c5ncc(-c6cncc(NC(=O)C7CCCC7)c6)cc45)cc23)CC1 | > 10000 | 7 | 30.3 | – | – | – |
| O=C(CC1CCNCC1)Nc1cncc(-c2ccc3[nH]nc(-c4cc5c(N6CCCCC6)nccc5[nH]4)c3n2)c1 | > 10000 | 6 | – | 21.8 | 1470 | – |
| CS(=O)(=O)NCc1cc(F)cc(-c2cncc3[nH]c(-c4n[nH]c5ccc(-c6cncc(NC(=O)C7CCC7)c6)cc45)cc23)c1 | 554 | 34 | 14.5 | – | – | – |
| CN1CCN(c2cncc3[nH]c(-c4n[nH]c5ccc(-c6cncc(CNCc7ccccc7)c6)cc45)cc23)CC1 | 3290 | 7 | – | 101 | 329 | 30 |
| O=C(Nc1c[nH]nc1C(=O)Nc1cncc(-c2cccc(F)c2)c1)c1cncc(OC2CCNCC2)c1 | 1600 | 12 | – | 89.5 | 339 | – |
| CC(C)C(=O)Nc1cncc(-c2ccc3[nH]nc(-c4nc5c(-c6cccnc6)cncc5[nH]4)c3c2)c1 | 5.1 | 10 | 34.4 | – | – | – |
| Fc1cccc(-c2cncc3[nH]c(-c4n[nH]c5ncc(-c6cccnc6)cc45)cc23)c1 | 572 | 57 | 35.6 | – | – | – |
| Cc1nnc(-c2ccc3cnc(NC(=O)c4ccnc(N(C)C5CCN(C)CC5)c4)cc3c2)s1 | – | – | – | 25.7 | 2.7 | – |
| CC(C)C(=O)Nc1cncc(-c2ccc3[nH]nc(-c4nc5c(-c6ccccc6F)cncc5[nH]4)c3c2)c1 | 4 | 10 | – | 102 | 3000 | 30 |
| Fc1cccc(-c2nccc3[nH]c(-c4n[nH]c5ccc(-c6cncc(CN7CCCCC7)c6)nc45)cc23)c1 | 3750 | 71 | 48 | – | – | – |
| c1ncc(-c2ccc3[nH]nc(-c4cc5c(-c6ccoc6)nccc5[nH]4)c3c2)cn1 | 1910 | 33 | 40.2 | – | – | – |
| CCC(=O)Nc1cncc(-c2ccc3[nH]nc(-c4cc5c(-c6cc(F)cc(CNS(C)(=O)=O)c6)cncc5[nH]4)c3c2)c1 | 244 | 22 | 29.4 | – | – | – |
| Cn1ncc(-c2ccc3cnc(NC(=O)c4cccc(CN5CCCC5)c4)cc3c2)c1CN1CCCCC1 | – | – | – | 27.6 | 1190 | – |
| FC1(F)CCN(Cc2cncc(-c3ccc4[nH]nc(-c5cc6c(N7CCCCC7)ccnc6[nH]5)c4n3)c2)C1 | 5270 | 30 | 37.6 | – | – | – |
| CN1CCN(c2nccc3[nH]c(-c4n[nH]c5cc(F)c(-c6cnn(C)c6)cc45)nc23)CC1 | 85.7 | 4 | – | 113 | 35.5 | – |
| CS(=O)(=O)NCc1cc(F)cc(-c2cncc3[nH]c(-c4n[nH]c5ccc(-c6cncnc6)nc45)cc23)c1 | 1030 | 76 | – | 106 | – | 10 |
| Nc1cncc(-c2ccc3[nH]nc(-c4nc5c(-c6ccccc6F)ccnc5[nH]4)c3c2)c1 | 2 | 5 | – | 113 | – | 30 |
| Nc1cncc(-c2cnc3[nH]nc(-c4cc5c(-c6ccncc6)nccc5[nH]4)c3c2)c1 | > 10000 | 4 | – | 53.5 | – | 30 |
| O=C(Nc1cncc(-c2ccc3[nH]nc(-c4nc5c(-c6ccncc6)ccnc5[nH]4)c3n2)c1)C1CCCCC1 | 999 | 26 | – | 68.6 | – | 10 |

| Structure (SMILES) | EC50 [1] [nM] | EC50 [2] [nM] | Emax at 0.1 µM [3] [%] | Emax at 0.03 µM [4] [%] | EC50 [5] [nM] | EC50 [6] [nM] |
| --- | --- | --- | --- | --- | --- | --- |
| CN(C)Cc1cncc(-c2cnc3[nH]nc(-c4nc5c(-c6cccs6)cncc5[nH]4)c3c2)c1 | 48 | 9 | – | 146 | 3000 | 30 |
| CC(C)CC(=O)Nc1cncc(-c2ccc3[nH]nc(-c4cc5c(-c6ccncc6)cncc5[nH]4)c3c2)c1 | 875 | 4 | – | 70.2 | – | 30 |
| CC(C)Nc1cncc(-c2ccc3[nH]nc(-c4nc5c(-c6ccoc6)nccc5[nH]4)c3n2)c1 | 297 | 18 | – | 76.2 | – | 30 |
| CN(C)c1cncc(-c2ccc3[nH]nc(-c4nc5c(-c6cccc(F)c6)ccnc5[nH]4)c3n2)c1 | 659 | 25 | – | 83.8 | – | 10 |
| O=C(Nc1cncc(-c2ccc3[nH]nc(-c4cc5cnccc5[nH]4)c3c2)c1)C1CCC1 | 75 | 2 | – | 213 | – | 10 |
| Nc1cncc(-c2ccc3[nH]nc(-c4cc5c(N6CCCCC6)ccnc5[nH]4)c3c2)c1 | 604 | 33 | – | 130 | – | 30 |
| c1cncc(-c2ccc3[nH]nc(-c4cc5c(-c6cccnc6)ccnc5[nH]4)c3n2)c1 | > 10000 | 10 | – | 59.2 | – | 100 |
| CCC(=O)Nc1cncc(-c2ccc3[nH]nc(-c4nc5c(-c6ccsc6)cncc5[nH]4)c3c2)c1 | 2 | 14 | – | 203 | – | 30 |
| O=C(Nc1cncc(-c2ccc3[nH]nc(-c4cc5ccncc5[nH]4)c3n2)c1)C1CCCC1 | 2630 | 12 | – | 50.3 | – | 30 |
| CC(C)Nc1cncc(-c2ccc3[nH]nc(-c4nc5c(-c6cc(F)cc(NCCN(C)C)c6)nccc5[nH]4)c3c2)c1 | 202 | 11 | – | 85.1 | – | 30 |
| CCC(=O)Nc1cncc(-c2ccc3[nH]nc(-c4nc5c(-c6cccc(F)c6)cncc5[nH]4)c3c2)c1 | 4.6 | 61 | – | 139 | – | 30 |
| CN1CCN(c2cncc3[nH]c(-c4n[nH]c5ccc(-c6cncc(N)c6)cc45)cc23)CC1 | 8250 | 3 | – | 50.9 | – | 30 |
| O=C(Nc1cncc(-c2cnc3[nH]nc(-c4cc5c(-c6ccncc6)cncc5[nH]4)c3c2)c1)C1CCC1 | > 10000 | 4 | – | 43.5 | 17.9 | – |
| Cc1ccncc1-c1cc2c(-c3nc4c(-c5cc(F)cc(CNS(C)(=O)=O)c5)ccnc4[nH]3)n[nH]c2cn1 | 109 | 56 | – | 70 | – | 30 |
| CCCCC(=O)Nc1cncc(-c2ccc3[nH]nc(-c4cc5c(N6CCCCC6)nccc5[nH]4)c3n2)c1 | 4050 | 43 | – | 54.7 | – | 30 |
| O=C(Cc1ccccc1)Nc1cncc(-c2ccc3[nH]nc(-c4nc5c(-c6ccoc6)cncc5[nH]4)c3c2)c1 | 33 | 17 | – | 102 | – | 30 |
| O=C(Nc1cnccc1NC(=O)C1CC1)c1n[nH]c2ccc(-c3cncc(CN4CCCCC4)c3)cc12 | 120 | 38 | – | 53.7 | – | 30 |
| CCNCc1cncc(-c2cc3c(-c4cc5c(-c6ccccc6F)ccnc5[nH]4)n[nH]c3cn2)c1 | > 10000 | 70 | – | 270 | – | 30 |
| CC(C)C(=O)Nc1cncc(-c2cnc3[nH]nc(-c4cc5c(-c6cc(F)cc(CNS(C)(=O)=O)c6)cncc5[nH]4)c3c2)c1 | > 10000 | 31 | – | 59.6 | – | 30 |
| CN(C)Cc1cncc(-c2ccc3[nH]nc(-c4nc5c(-c6cccc(F)c6)cccc5[nH]4)c3n2)c1 | 637 | 65 | – | 84.6 | – | 30 |
| Fc1ccc(-c2nccc3[nH]c(-c4n[nH]c5ccc(-c6cncc(CN7CCCC7)c6)cc45)cc23)cc1 | 3620 | 60 | – | 98.5 | – | 30 |
| CC(C)(C)CC(=O)Nc1cncc(-c2cc3c(-c4cc5c(-c6ccccc6F)nccc5[nH]4)n[nH]c3cn2)c1 | 1030 | 50 | – | 54.3 | – | 30 |
| Cn1cc(-c2cnc3[nH]nc(-c4nc5c(-c6cccc(F)c6)nccc5[nH]4)c3c2)cn1 | 11.1 | 39 | – | 74.9 | – | 30 |
| O=C(Nc1cncc(-c2cnc3[nH]nc(-c4cc5cnccc5[nH]4)c3c2)c1)c1ccccc1 | > 10000 | 2 | – | 69.9 | – | 30 |
